Patent US20240148744A1 (Celgene Corporation, priority 2021, published 2024)

Key:
Dirofilaria immitis = test: Heartworm screen Dirofilaria immitis (stage DiMF/DiL4 not specified in the tables); format: cell-based; conditions: read-out: D. immitis Activity class
[1] = tested on: Onchocerca gutturosa adult male worms; test: Onchocerca gutturosa in vitro screening model: adult worm motility score and MTT/formazan viability; format: cell-based; conditions: read-out: O. gutt Activity class

With `Cc1ccc(S(=O)(=O)Nc2cc(F)cc3cccnc23)nc1` [Compound 88, N-(6-fluoro-quinolin-8-yl)-5-methyl-pyridine-2-sulfonamide] the IC50 (Dirofilaria immitis) was 500 to 5000 nM and the IC50 [1] was 500 to 5000 nM.

In the case of `O=S(=O)(Nc1c(Cl)ccc2cccnc12)c1ncccc1F` [Compound 98, N-(7-chloro-quinolin-8-yl)-3-fluoro-pyridine-2-sulfonamide], the IC50 (Dirofilaria immitis) is reported as 500 to 5000 nM and the IC50 [1] is reported as less than 200 nM.

`CN(C)c1cccnc1S(=O)(=O)Nc1c(Cl)ccc2cccnc12` [Compound 99, N-(7-chloro-quinolin-8-yl)-3-(dimethyl-amino)pyridine-2-sulfonamide] gave an IC50 (Dirofilaria immitis) of 500 to 5000 nM and an IC50 [1] of 500 to 5000 nM.

With `Cc1cccnc1S(=O)(=O)Nc1c(Cl)ccc2cccnc12` [Compound 100, N-(7-chloro-quinolin-8-yl)-3-methylpyr-idine-2-sulfon-amide] the IC50 (Dirofilaria immitis) was 500 to 5000 nM and the IC50 [1] was less than 200 nM.

Molecule `CCn1ccnc1S(=O)(=O)Nc1c(C)ccc2cccnc12` [Compound 102, 1-ethyl-N-(7-methylquin-olin-8-yl)-1H-imidazole-2-sulfonamide] has an IC50 (Dirofilaria immitis) of 200 to 500 nM and an IC50 [1] of less than 200 nM.

In the case of `CCn1ccnc1S(=O)(=O)Nc1cc(C)cc2cccnc12` [Compound 103, 1-ethyl-N-(6-methylquin-olin-8-yl)-1H-imidazole-2-sulfonamide], the IC50 (Dirofilaria immitis) is reported as 200 to 500 nM and the IC50 [1] is reported as 500 to 5000 nM.

`CCn1ccnc1S(=O)(=O)Nc1cccc2cc(C)cnc12` [Compound 105, 1-ethyl-N-(3-methylquin-olin-8-yl)-1H-imidazole-2-sulfonamide] was tested, and the IC50 (Dirofilaria immitis) was 500 to 5000 nM and the IC50 [1] was less than 200 nM.

With `CCn1ccnc1S(=O)(=O)Nc1cccc2ccc(C)nc12` [Compound 106, 1-ethyl-N-(2-methylquin-olin-8-yl)-1H-imidazole-2-sulfonamide] the IC50 (Dirofilaria immitis) was 200 to 500 nM and the IC50 [1] was 500 to 5000 nM.

Molecule `CCn1ccnc1S(=O)(=O)Nc1cc(F)cc2cccnc12` [Compound 107, 1-ethyl-N-(6-fluoroquinolin-8-yl)-1H-imidazole-2-sulfonamide] has an IC50 (Dirofilaria immitis) of 200 to 500 nM and an IC50 [1] of less than 200 nM.

`CCn1ccnc1S(=O)(=O)Nc1ccc(F)c2cccnc12` [Compound 108, 1-ethyl-N-(5-fluoroquinolin-8-yl)-1H-imidazole-2-sulfonamide] was tested, and the IC50 (Dirofilaria immitis) was less than 200 nM and the IC50 [1] was 500 to 5000 nM.

`CCn1ccnc1S(=O)(=O)Nc1cccc2cc(F)cnc12` [Compound 109, 1-ethyl-N-(3-fluoroquinolin-8-yl)-1H-imidazole-2-sulfonamide] was tested, and the IC50 (Dirofilaria immitis) was 200 to 500 nM and the IC50 [1] was less than 200 nM.

With `CCn1ccnc1S(=O)(=O)Nc1ccc(Cl)c2cccnc12` [Compound 110, N-(5-chloro-quinolin-8-yl)-1-ethyl-1H-imidazole-2-sulfonamide] the IC50 (Dirofilaria immitis) was 200 to 500 nM and the IC50 [1] was 200 to 500 nM.

For `Cc1ccc(S(=O)(=O)Nc2c(C)ccc3cccnc23)nc1` [Compound 112, 5-methyl-N-(7-methyl-quinolin-8-yl)-pyridine-2-sulfonamide], the IC50 (Dirofilaria immitis) was 500 to 5000 nM and the IC50 [1] was 200 to 500 nM.

For `Cc1ccc(S(=O)(=O)Nc2cccc3cc(C)cnc23)nc1` [Compound 113, 5-methyl-N-(3-methyl-quinolin-8-yl)-pyridine-2-sulfonamide], the IC50 (Dirofilaria immitis) was 200 to 500 nM and the IC50 [1] was less than 200 nM.

For `Cc1ccc(S(=O)(=O)Nc2c(Cl)ccc3cccnc23)nc1` [Compound 114, N-(7-chloro-quinolin-8-yl)-5-methylpyr-idine-2-sulfon-amide], the IC50 (Dirofilaria immitis) was 500 to 5000 nM and the IC50 [1] was less than 200 nM.

`CCn1ccnc1S(=O)(=O)Nc1cccc2cc(Cl)cnc12` [Compound 116, N-(3-chloro-quinolin-8-yl)-1-ethyl-1H-imidazole-2-sulfonamide] was tested, and the IC50 (Dirofilaria immitis) was 200 to 500 nM and the IC50 [1] was 200 to 500 nM.

With `CCn1ccnc1S(=O)(=O)Nc1cc(OC)cc2cccnc12` [Compound 117, 1-ethyl-N-(6-methoxyquin-olin-8-yl)-1H-imidazole-2-sulfonamide] the IC50 (Dirofilaria immitis) was 200 to 500 nM and the IC50 [1] was 500 to 5000 nM.

Work on `Cc1ccc(S(=O)(=O)Nc2ccc(Cl)c3cccnc23)nc1` [Compound 118, N-(5-chloro-quinolin-8-yl)-5-methylpyr-idine-2-sulfon-amide] yielded an IC50 (Dirofilaria immitis) of 500 to 5000 nM and an IC50 [1] of less than 200 nM.

`Cc1ccc(S(=O)(=O)Nc2cccc3c(Cl)ccnc23)nc1` [Compound 119, N-(4-chloro-quinolin-8-yl)-5-methylpyr-idine-2-sulfon-amide] showed an IC50 (Dirofilaria immitis) of 500 to 5000 nM and an IC50 [1] of less than 200 nM.

`Cc1ccc(S(=O)(=O)Nc2cccc3cc(Cl)cnc23)nc1` [Compound 120, N-(3-chloro-quinolin-8-yl)-5-methylpyr-idine-2-sulfon-amide] showed an IC50 (Dirofilaria immitis) of 200 to 500 nM and an IC50 [1] of 200 to 500 nM.

For `COc1cnc2c(NS(=O)(=O)c3ccc(C)cn3)cccc2c1` [Compound 121, N-(3-methoxy-quinolin-8-yl)-5-methylpyr-idine-2-sulfon-amide], the IC50 (Dirofilaria immitis) was 500 to 5000 nM and the IC50 [1] was less than 200 nM.

`CCn1ccnc1S(=O)(=O)Nc1cccc2c(OC)ccnc12` [Compound 122, 1-ethyl-N-(4-methoxyquin-olin-8-yl)-1H-imidazole-2-sulfonamide] gave an IC50 (Dirofilaria immitis) of 500 to 5000 nM and an IC50 [1] of less than 200 nM.

`COc1ccc(NS(=O)(=O)c2ccc(C)cn2)c2ncccc12` [Compound 123, N-(5-methoxy-quinolin-8-yl)-5-methylpyr-idine-2-sulfon-amide] was tested, and the IC50 (Dirofilaria immitis) was 500 to 5000 nM and the IC50 [1] was less than 200 nM.

`COc1ccnc2c(NS(=O)(=O)c3ccc(C)cn3)cccc12` [Compound 124, N-(4-methoxy-quinolin-8-yl)-5-methylpyr-idine-2-sulfon-amide] gave an IC50 (Dirofilaria immitis) of 500 to 5000 nM and an IC50 [1] of less than 200 nM.

`COc1cc(NS(=O)(=O)c2ccc(C)cn2)c2ncccc2c1` [Compound 125, N-(6-methoxy-quinolin-8-yl)-5-methylpyr-idine-2-sulfon-amide] gave an IC50 (Dirofilaria immitis) of 500 to 5000 nM and an IC50 [1] of less than 200 nM.

`Cc1ccc(S(=O)(=O)Nc2ccc(F)c3cccnc23)nc1` [Compound 126, N-(5-fluoro-quinolin-8-yl)-5-methylpyr-idine-2-sulfon-amide] was tested, and the IC50 (Dirofilaria immitis) was 200 to 500 nM and the IC50 [1] was 500 to 5000 nM.

`Cc1ccc(S(=O)(=O)Nc2cc(C)cc3cccnc23)nc1` [Compound 127, 5-methyl-N-(6-methylquin-olin-8-yl)pyr-idine-2-sulfon-amide] was tested, and the IC50 (Dirofilaria immitis) was 200 to 500 nM and the IC50 [1] was less than 200 nM.

Work on `N#CCc1cccc(S(=O)(=O)Nc2cccc3cccnc23)n1` [Compound 150, 6-(cyanomethyl)-N-(quinolin-8-yl)pyridine-2-sulfonamide] yielded an IC50 (Dirofilaria immitis) of 500 to 5000 nM and an IC50 [1] of 200 to 500 nM.

For `Nc1ncccc1S(=O)(=O)Nc1cccc2cccnc12` [Compound 151, 2-amino-N-(quinolin-8-yl)pyridine-3-sulfonamide], the IC50 (Dirofilaria immitis) was 500 to 5000 nM and the IC50 [1] was 500 to 5000 nM.

`O=S(=O)(Nc1cccc2cccnc12)c1ccnc(C2CC2)c1` [Compound 152] gave an IC50 (Dirofilaria immitis) of 500 to 5000 nM and an IC50 [1] of less than 200 nM.

`O=S(=O)(Nc1cccc2cccnc12)c1ccc(C(F)F)nc1` [Compound 153, 6-(difluoromethyl)-N-(quinolin-8-yl)pyridine-3-sulfonamide] showed an IC50 (Dirofilaria immitis) of 500 to 5000 nM and an IC50 [1] of 500 to 5000 nM.

`Cc1cc(S(=O)(=O)Nc2cccc3cccnc23)ccn1` [Compound 154, 2-methyl-N-(quinolin-8-yl)pyridine-4-sulfonamide] gave an IC50 (Dirofilaria immitis) of 500 to 5000 nM and an IC50 [1] of 200 to 500 nM.

`Cc1ncccc1S(=O)(=O)Nc1cccc2cccnc12` [Compound 155, 2-methyl-N-(quinolin-8-yl)pyridine-3-sulfonamide] showed an IC50 (Dirofilaria immitis) of 500 to 5000 nM and an IC50 [1] of 500 to 5000 nM.

`O=S(=O)(Nc1cccc2cccnc12)c1cccc(C(F)(F)F)n1` [Compound 156, N-(quinolin-8-yl)-6-(trifluoromethyl) pyridine-2-sulfonamide] gave an IC50 (Dirofilaria immitis) of 500 to 5000 nM and an IC50 [1] of less than 200 nM.
